{
  "source": "patent US5208032A",
  "about": "“Increasing the growth of turkeys using implant of 19-nortestosterone” (Rutgers, The State University of New Jersey, priority 1992, dated 1993)",
  "origin": "cited, not measured here",
  "key": {"testosterone antiserum": {"tested_on": "testosterone antiserum", "conditions": "manufacturer statement; cited from earlier work"}, "5-alpha-DHT anti-serum": {"tested_on": "5-alpha-DHT anti-serum", "conditions": "antibody provided by Dr. Alan L. Johnson; cited from earlier work"}, "[1]": {"conditions": "mice, Innovative Research pellets, 21 days; cited from earlier work"}},
  "data": [
    {"smiles": "C[C@]12CC[C@@H](O)C[C@@H]1CC[C@@H]1[C@@H]2CC[C@]2(C)[C@@H](O)CC[C@@H]12", "note": "[5-alpha-androstane-3-alpha,17-beta-diol]", "values": [
      {"measurement": "cross-reaction with Immuchem testosterone antiserum", "setting": "testosterone antiserum", "result": "less than 0.01%"}
    ]},
    {"smiles": "C[C@]12CCC(=O)C=C1CC[C@@H]1[C@@H]2CC[C@]2(C)C(=O)CC[C@@H]12", "note": "[4-adrosten-3,17-dione]", "values": [
      {"measurement": "cross-reaction with Immuchem testosterone antiserum", "setting": "testosterone antiserum", "result": 0.56, "unit": "%"},
      {"measurement": "reaction with 5-alpha-DHT anti-serum (Ford's-F/1)", "setting": "5-alpha-DHT anti-serum", "result": 11.4, "unit": "%"}
    ]},
    {"smiles": "C[C@]12CC[C@@H]3c4ccc(O)cc4CC[C@H]3[C@@H]1CC[C@@H]2O", "note": "[17 beta-estradiol]", "values": [
      {"measurement": "maintained blood levels", "setting": "[1]", "result": "20 to 30", "unit": "ng/mL"}
    ]}
  ]
}
